In patent US20060223756A1, “Endothelial cell specifically binding peptides” (priority 2002, published 2006):

Assays:
HeLa cells = test: In vitro transduction analysis (β-galactosidase, X-gal stain) on HeLa; format: cell-based, human
Experimental: (§1) S8 cells are A549 cells stably transfected with adenoviral E1 and E2a genes under separate dexamethasone-inducible promoters (Gorziglia et al., 1996). S8 cells are cultured in IMEM (Biofluids, Rockville, Md.) with 10% heat inactivated fetal bovine serum (HIFBS). For virus production, the cells are cultured with 0.3 uM dexamethasone to induce the expression of E1 and E2a genes. H460 cells are a human non-small cell lung carcinoma (ATCC, Manassas, Va.) and are cultured in RPMI Medium 1640 (Life Technologies, Gaithersburg, Md.) with 10% HIFBS. PC3 cells are a human prostate carcinoma cell line (ATCC) and are cultured in RPMI Medium 1640 with 10% HIFBS. HeLa cells are a human cervical carcinoma cell line (ATCC) and are cultured in DMEM with 10% HIFBS. Primary human endothelial cells, in particular Human Umbilical Vein Endothelial Cells (HUVECs) are obtained from the Clonetics Corporation (Walkerville, Md.: AC-7018). The cells are cultured in the recommended medium.
(§2) The transduction efficiency of Av3nBgPD1 is surveyed using primary human umbilical vein endothelial cells (HUVEC) and on three human carcinoma cell lines including HeLa, PC3, and H460 cells. […] The percentage of transduction is determined by light microscopy by counting the number of positively transduced blue cells per field as described previously (Stevenson, et. al, 1997).

[1] = tested on: primary human umbilical vein endothelial cells (HUVEC); test: In vitro transduction analysis (β-galactosidase, X-gal stain) on HUVEC; format: cell-based
Experimental: as §1, §2

PC3 cells = test: In vitro transduction analysis (β-galactosidase, X-gal stain) on PC3; format: cell-based, human
Experimental: as §1, §2

## CPDLHHHMC (Artificial sequence derived from human and animal adenovirus peptide sequences for binding to endothelial cell surface molecules) [PD1]
HeLa cells
  transduction compared with Av3nBg control, in words: offered no advantage
[1]
  transduction compared with Av3nBg control, in words: enhances transduction
PC3 cells
  transduction compared with Av3nBg control, in words: offered no advantage
